Data set [1] concerns the target T1, PfACβ (adenylyl cyclase-β) (Plasmodium falciparum, UniProt C0H4R1).
T1 construct: gene PF3D7_0802600; GST-PfACβ1-785 (catalytic domains, AA 1–785)
T1 sequence (C0H4R1 1-785): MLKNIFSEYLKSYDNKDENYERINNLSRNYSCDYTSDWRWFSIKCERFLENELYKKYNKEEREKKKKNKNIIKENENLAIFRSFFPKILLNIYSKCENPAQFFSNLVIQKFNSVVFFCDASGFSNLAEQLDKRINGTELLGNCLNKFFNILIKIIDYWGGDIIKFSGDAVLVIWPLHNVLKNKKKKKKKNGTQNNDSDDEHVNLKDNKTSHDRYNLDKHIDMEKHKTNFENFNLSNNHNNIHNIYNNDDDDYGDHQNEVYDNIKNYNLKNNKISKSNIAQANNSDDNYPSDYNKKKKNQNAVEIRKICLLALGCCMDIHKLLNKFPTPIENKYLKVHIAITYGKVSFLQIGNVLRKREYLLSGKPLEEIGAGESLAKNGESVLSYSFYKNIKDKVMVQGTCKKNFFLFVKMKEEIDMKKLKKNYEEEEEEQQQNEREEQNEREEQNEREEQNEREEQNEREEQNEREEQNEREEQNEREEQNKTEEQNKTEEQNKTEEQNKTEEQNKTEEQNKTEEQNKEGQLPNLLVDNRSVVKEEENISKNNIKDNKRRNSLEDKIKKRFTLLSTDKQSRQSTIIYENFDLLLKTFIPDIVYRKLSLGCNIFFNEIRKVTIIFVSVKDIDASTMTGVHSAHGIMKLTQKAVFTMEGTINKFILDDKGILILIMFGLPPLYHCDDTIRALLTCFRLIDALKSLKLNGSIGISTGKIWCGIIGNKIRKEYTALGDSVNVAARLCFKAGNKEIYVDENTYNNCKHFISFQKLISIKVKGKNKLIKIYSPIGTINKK
The experiment in a line: radioactive two-column adenylyl cyclase assay with purified GST-PfACβ[…]-785. Type of data set: biochemical.

The target in a further data set is T2, PfACα (Plasmodium falciparum, UniProt Q8I7A1).
T2 construct: gene ac1
T2 sequence (Q8I7A1 1-884): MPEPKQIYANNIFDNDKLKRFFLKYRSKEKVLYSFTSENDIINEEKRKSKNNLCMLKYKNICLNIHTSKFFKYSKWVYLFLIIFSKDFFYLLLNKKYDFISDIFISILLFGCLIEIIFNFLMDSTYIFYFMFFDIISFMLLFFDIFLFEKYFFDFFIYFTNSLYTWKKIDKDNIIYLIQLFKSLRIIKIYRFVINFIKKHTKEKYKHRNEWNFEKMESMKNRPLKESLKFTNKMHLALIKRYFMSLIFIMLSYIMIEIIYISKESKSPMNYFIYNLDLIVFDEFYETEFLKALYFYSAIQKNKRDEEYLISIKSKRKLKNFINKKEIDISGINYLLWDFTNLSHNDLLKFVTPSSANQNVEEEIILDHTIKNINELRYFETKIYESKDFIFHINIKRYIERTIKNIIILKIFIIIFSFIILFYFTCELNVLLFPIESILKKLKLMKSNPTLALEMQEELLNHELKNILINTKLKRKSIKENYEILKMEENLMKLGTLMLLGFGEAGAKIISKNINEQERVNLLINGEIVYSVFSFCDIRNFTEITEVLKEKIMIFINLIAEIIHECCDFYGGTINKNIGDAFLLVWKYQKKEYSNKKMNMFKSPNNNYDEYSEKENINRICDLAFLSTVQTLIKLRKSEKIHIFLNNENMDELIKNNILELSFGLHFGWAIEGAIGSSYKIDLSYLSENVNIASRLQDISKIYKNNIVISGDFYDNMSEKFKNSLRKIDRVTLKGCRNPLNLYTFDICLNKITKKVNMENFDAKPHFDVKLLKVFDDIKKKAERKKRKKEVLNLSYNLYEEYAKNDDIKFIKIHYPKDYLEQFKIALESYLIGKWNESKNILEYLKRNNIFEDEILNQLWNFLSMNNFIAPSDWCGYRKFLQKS
Nature of the data set: adenylyl cyclase activity in PfACα-expressing Hi5 cells, […] 2-CE. Type of data set: cell-based.

Substrate in data set [2]: Nc1ncnc2c1ncn2[C@@H]1O[C@H](COP(=O)(O)OP(=O)(O)OP(=O)(O)O)[C@@H](O)[C@H]1O
Nature of the data set: Michaelis-Menten kinetics (Km), adenylyl cyclase assay with purified enzyme. Type of data set: biochemical, Plasmodium falciparum. The settings on record: Mn2+ active site; lack of cooperative binding of substrate.

Read-outs that look alike come from different tables or passages of the source.

For `CC(Sc1nc2ccccc2[nH]1)C(=O)N/N=C/c1cc(Br)ccc1O` (racemic) [KH7], in data set [1] (read-out: IC50), the half-maximal inhibitory concentration (IC50) was found to be 5 µM.

Consider `C[C@]12CC[C@@H]3c4cc(O)c(O)cc4CC[C@H]3[C@@H]1CC[C@@H]2O` [2-CE, 2-hydroxyestradiol], for which the “adenylyl cyclase activity in PfACα-expressing Hi5 cells, 50 μM 2-CE” value at PfACα is on record as “although PfACα adenylyl cyclase activity was inhibited by 2-CE, it was largely insensitive to KH7 (Figure 4C)”. The half-maximal inhibitory concentration (IC50) in data set [1] came to 8 µM.

Take KH7.15: in data set [1] (read-out: IC50), the IC50 came to 150 µM.

B1: PfACβ (adenylyl cyclase-β) (Plasmodium falciparum 3D7) (protein)
chain: T1 sequence (C0H4R1 1-785)
notes: GST-PfACβ1-785 (catalytic domains, AA 1–785)
B1: in data set [2], the Km came out at 570 µM.

Values taken from article PMC3383692, “Characterization of Plasmodium falciparum Adenylyl Cyclase-β and Its Role in Erythrocytic Stage Parasites” (PLoS ONE, 2012).
